Assay results taken from PMC10006169, “A phase I trial of LXS196, a protein kinase C (PKC) inhibitor, for metastatic uveal melanoma” (British Journal of Cancer, 2023).

Test system: RasGRP3, DUSP6
Assay: RNAseq gene expression in tumour biopsies
Assay type: in vivo, human
Experimental: Detailed DNA and RNA extraction methods and analysis are described in the supplementary appendix.
RNA libraries were prepared for RNAseq as previously described. Briefly, the total RNA was depleted of ribosomal RNA (rRNA), fragmented, converted to cDNA, and then the next generation sequencing (NGS) library was constructed using the TruSeq RNA v2 Library Preparation Kit (Illumina) with end repair, A-tailing, indexed adaptor ligation and PCR amplification steps. Sequence reads were aligned with STAR [12] to the hg19 human reference genome, and read counts of coding regions were summarised by HTSeq using a reference transcriptome of human Refseq transcripts.

CC1(N)CCN(c2cccnc2NC(=O)c2nc(-c3ncccc3C(F)(F)F)cnc2N)CC1 [LXS196]
MAPK pathway activity as measured by DUSP6 expression: trend towards suppression in the PR group | RasGRP3 expression on treatment (C1D15, QD and BID): decreased in some patients
